Assay results reported in patent publication US6235754A, “Methods and compositions for protecting animals and humans against attack and infestation by arthropod and helminth parasites” (American Cyanamid Company, priority 1999, dated 2001).
Read-outs that look alike come from different tables or passages of the source.

Test system: Ctenocephalides felis (cat flea)
Test: Contact activity against the adult cat flea (Table I)
Type: in vivo
Details: topical
Description: This test is designed to evaluate the contact activity of test compounds against the adult cat flea. Test compounds are dissolved in 100% acetone to 300, 100, 10 and 1 ppm. 100 μL of each of these dilutions is added to the bottom of a 20 mL glass scintillation vial with a pipettor. The vial is allowed to dry under a fume hood for 15 minutes. The bottom of the vial measures 4.909 cm^2. The amount of test compound applied by each dilution equals 6.2, 2.0, 0.2 and 0.02 μg/cm^2, respectively. Newly emerged adult cat fleas are anesthetized with CO2 to immobilize, and are counted into the scintillation vials with forceps. Five fleas are placed in each vial. These tests are done in replicates of two or three so that there are 10 to 15 fleas per rate/compound. Mortality readings are taken 4 and 24 hours after placing the fleas in the vials. […] Percent mortality is then calculated for each treatment.

[1] = 4 h, read-out: 4 Hour % Mortality
[2] = 24 h, read-out: 24 Hour % Mortality

Compound	mortality at 0.02 µg/cm2 [1] [%]	mortality at 0.2 µg/cm2 [1] [%]	mortality at 2 µg/cm2 [1] [%]	mortality at 6.2 µg/cm2 [1] [%]	mortality at 0.02 µg/cm2 [2] [%]	mortality at 0.2 µg/cm2 [2] [%]	mortality at 2 µg/cm2 [2] [%]	mortality at 6.2 µg/cm2 [2] [%]
CCOc1ccc(C(/C(F)=C/Cc2cccc(Oc3ccccc3)c2)C(C)C)cc1 (stereo not shown) [Compound 11, 4-(p-Ethoxyphenyl)-3-fluoro-5-methyl-1-(m-phenoxyphenyl)-2-hexene, (Z)-]	0	10	30	60	10	40	90	90
F/C(=C\Cc1cccc(Oc2ccccc2)c1)C(c1ccc(F)cc1)C1CC1 (racemic) [Compound 15, 1-[2-Fluoro-1-(p-fluorophenyl)-4-(m-phenoxyphenyl)-2-butenyl]cyclopropane, (R,S)-(Z)-]		44	80	100		78	100	100
CC(C)C(/C(F)=C(\F)Cc1ccc(F)c(Oc2ccccc2)c1)c1ccc(OC(F)(F)F)cc1 (stereo not shown) [Compound 17, 2,3-Difluoro-1-(4-fluoro-3-phenoxyphenyl)-5-methyl-4-[p-(trifluoromethoxy)phenyl]-2-hexene, (E)-]	0	10	10	10	20	40	50	90
CC(C)(C(F)=CCc1cccc(Oc2ccccc2)c1)c1ccc(Cl)cc1 [Compound 1, 4-(p-Chlorophenyl)-3-fluoro-4-methyl-1-(m-phenoxyphenyl)-2-pentene, (Z)- and (E)-(95:5)]	5	5	10	0	10	20	35	53
CC(C)C(/C(F)=C/Cc1cccc(Oc2ccccc2)c1)c1ccc(Cl)cc1 (stereo not shown) [Compound 8, 4-(p-Chlorophenyl)-3-fluoro-5-methyl-1-(m-phenoxyphenyl)-2-hexene, (Z)-]	0	0	0	0	10	0	0	20
F/C(=C\Cc1cccc(Oc2ccccc2)c1)C(c1ccc(Cl)cc1)C1CC1 (stereo not shown) [Compound 6, 1-[1-(p-Chlorophenyl)-2-fluoro-4-(m-phenoxyphenyl)-2-butenyl]cyclopropane, (Z)-]	0	0	56	80	8	28	88	100
F/C(=C\Cc1cccc(Oc2ccccc2)c1)C1(c2ccc(Cl)cc2)CC1 [Compound 3, 1-(p-Chlorophenyl)-1-[1-fluoro-3-(m-phenoxyphenyl)propenyl]cyclopropane, (Z)-]	5	0	7	0	5	7	17	13
CC(C)(C)C(/C(F)=C/Cc1cccc(Oc2ccccc2)c1)c1ccc(Cl)cc1 (stereo not shown) [Compound 9, 4-(p-Chlorophenyl)-3-fluoro-5-methyl-1-(m-phenoxyphenyl)-5-methyl-2-hexene, (Z)-]	0	0	30	20	40	70	70	80
CCOc1ccc(C(/C(F)=C/Cc2cccc(Oc3ccc(F)cc3)c2)C(C)C)cc1 (stereo not shown) [Compound 12, 4-(p-Ethoxyphenyl)-3-fluoro-1-[m-(p-fluorophenoxy)phenyl]-5-methyl-2-hexene, (Z)-]	0	0	10	33	0	10	30	78
F/C(=C\Cc1cccc(Oc2ccc(F)cc2)c1)C(c1ccc(Cl)cc1)C1CC1 (stereo not shown) [Compound 13, 1-{1-(p-Chlorophenyl)-2-fluoro-4-[m-(p-fluorophenoxy)phenyl]-2-butenyl}cyclopropane, (Z)-]	0	0	5	10	5	33	67	95
CC(C)C(/C(F)=C/Cc1ccc(F)c(Oc2ccccc2)c1)c1ccc(Cl)cc1 (stereo not shown) [Compound 7, 4-(p-Chlorophenyl)-3-fluoro-1-(4-fluoro-3-phenoxyphenyl)-5-methyl-2-hexene, (Z)-]	0	0	0	0	10	0	0	100
CCOc1ccc(C(/C(F)=C/Cc2ccc(F)c(Oc3ccc(F)cc3)c2)C2CC2)cc1 (racemic) [Compound 16, 1-{1-(p-Ethoxyphenyl)-2-fluoro-4-[4-fluoro-3-(p-fluorophenoxy)phenyl]-2-butenyl}cyclopropane, (R,S)-(Z)-]	0	20	71	100	60	50	100	100
F/C(=C\Cc1ccc(F)c(Oc2ccccc2)c1)C1(c2ccc(Cl)cc2)CC1 [Compound 4, 1-(p-Chlorophenyl)-1-[1-fluoro-3-(4-fluoro-3-phenoxyphenyl)propenyl]cyclopropane, (Z)-]	5	7	0	3	16	14	21	28
CC(C)(/C(F)=C/Cc1ccc(F)c(Oc2ccccc2)c1)c1ccc(Cl)cc1 [Compound 2, 4-(p-Chlorophenyl)-3-fluoro-1-(4-fluoro-3-phenoxyphenyl)-4-methyl-2-pentene, (Z)-]	5	0	0	22	10	32	58	100
CCOc1ccc(C(/C(F)=C/Cc2cccc(Oc3ccccc3)c2)C2CC2)cc1 (racemic) [Compound 14, 1-[1-(p-Ethoxyphenyl)-2-fluoro-4-(m-phenoxyphenyl)-2-butenyl]cyclopropane, (R,S)-(Z)-]	10	20	20	50	30	60	100	100
